{
  "source": "patent US9128046B2",
  "about": "“Slide holder assembly for comet assay” (Cellomics, Inc., priority 2011, dated 2015)",
  "key": {"[1]": {"test_system": "CHO-K1 cells", "test": "comet assay on CHO-K1 cells in slide holder assembly", "format": "cell-based", "details": "CHO-K1 cells treated with 100 μM for one hour; imaged with ToxInsight IVT platform", "procedure": "Exemplary comet assays were performed using the above devices and methods. For example, in one comet assay, comets were successfully generated and analyzed using CHO-K1 cells on a 96-well glass slide. To ensure that comets would be produced, half of the CHO-K1 cells were treated with 100 μM 9-aminoacridine for one hour. A 96-well glass slide was secured within a slide holder assembly and half of the slide was layered with the treated CHO-K1 cells while the other half was layered with untreated CHO-K1 cells. The cells were allowed to soak in a lysis solution and then an electrophoresis buffer while in the slide holder assembly. The cells were then electrophoresed while in the slide holder assembly and then imaged using the ToxInsight IVT platform.\nIn FIG. 11, the untreated CHO-K1 cells 342 are shown in columns 1-6 (i.e., the left half of the image) and the treated CHO-K1 cells 344 are shown in columns 7-12 (i.e., on the right half). […] In the sample comet assay, the ToxInsight® IVT Platform was used as the cell imaging system to scan 25 fields/well. Using the Comet.V4 BioApplication software developed by Cellomics Inc., 14,075 comets were automatically selected by the cell imaging system within a time period of 20 minutes, 29 seconds. […] This translates to over one million comets that could be analyzed per 24-hour day."}, "[2]": {"test_system": "CHO-K1 cells", "test": "comet assay of DNA repair over varied durations of time", "format": "cell-based", "details": "treated CHO-K1 cells layered onto wells for varied durations of time; FIG. 12", "procedure": "In another sample comet assay, CHO-K1 cells were treated with 9-aminoacridine and the treated cells were layered onto select wells on the glass slide for varied durations of time. The cells were allowed to soak in a lysis solution and then an electrophoresis buffer while in the slide holder assembly. The cells were then electrophoresed while in the slide holder assembly and then imaged using the ToxInsight IVT Platform."}},
  "data": [
    {"molecule": "Nc1c2ccccc2nc2ccccc12", "note": "[9-aminoacridine]", "values": [
      {"measurement": "comet formation (DNA damage)", "setting": "[1]", "value": "comets were formed and imaged on the treated cells"},
      {"measurement": "DNA repair quantified in comets", "setting": "[2]", "value": "time-dependent response of DNA repair"}
    ]}
  ]
}
